Test: Stability of aromatic amino acids during acidic hydrolysis (HPLC)
Type: physicochemical
Conditions: hydrochloric acid, 24 h at 120 °C, 1 mg/mL before hydrolysis, HPLC with UV 214 nm
Procedure: For acidic hydrolysis 10 µL ^13C6(ring) phenylalanine (1 mg/mL stock) were added as internal standard to 200 µL water containing ^13C9,^15N1 phenylalanine (for calibration curve) or human serum (from voluntary donors) containing Pep19-2.5 with four ^13C9,^15N1 phenylalanine residues. After addition of 270 µL hydrochloric acid (10 M), the samples were hydrolyzed at 120 °C for 24 h. Subsequently, the solvent was evaporated in a vacuum evaporator (HETOVAC) at 40 °C for 4 h and the pellet was resuspended in water to achieve the applied concentration.
HPLC analysis was performed using an Agilent 1100 system with an UV-detection at 214 nm. As stationary phase a Chromolith® Performance RP-18e 100–3 mm column (Merck KGaA, Darmstadt, Germany) was used. A 5 min linear gradient from 100% water (+0.05% trifluoroacetic acid (TFA)) to 100% acetonitrile (+0.05% TFA) was applied.
For an accurate determination it is necessary to select an amino acid which is stable under the extreme conditions in the hydrolysis step (24 h, 120 °C). Moreover, the development of the method is facilitated if the amino acid is UV-active and more importantly in case of hydrophobic amino acids that are separated from the bulk of amino acids by RP-HPLC. Due to this, the three aromatic amino acids phenylalanine, tryptophan and tyrosine were hydrolyzed, and their stability analyzed by HPLC, as shown in Figure 4.

stability during the acidic hydrolysis process | Structure (SMILES)
forms several degradation products | N[C@@H](Cc1c[nH]c2ccccc12)C(=O)O [Tryptophan, tryptophan]
sufficiently stable | N[C@@H](Cc1ccccc1)C(=O)O [phenylalanine]
degraded to poorly soluble products | N[C@@H](Cc1ccc(O)cc1)C(=O)O [tyrosine]
